PubChem BioAssay AID328 (DTP/NCI, 2004)
Toxic doses and inconclusive results are not listed. How the source made its calls: active means survival T/C of 150% or more; inactive means T/C below 125% in these data.

Test system: BDF1 mice, P388 leukemia ip, median survival T/C
Assay: NCI In Vivo Anticancer Drug Screen. Data for tumor model P388 Leukemia (intraperitoneal) in B6D2F1 (BDF1) mice
Conditions: endpoint: median survival time, higher = longer survival
Outline: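 Transplantable tumour in mice; compound vs vehicle dosing; survival scored; ratio of treated to control reported.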

[1] = dose: 50.0 mg/kg/injection, schedule: Q01DX009 (ip), vehicle: saline with Tween-80
[2] = dose: 100.0 mg/kg/injection, schedule: Q01DX009 (ip), vehicle: saline with Tween-80
[3] = dose: 200.0 mg/kg/injection, schedule: Q01DX009 (ip), vehicle: saline with Tween-80
[4] = dose: 400.0 mg/kg/injection, schedule: Q01DX009 (ip), vehicle: saline with Tween-80
[5] = dose: 100.0 mg/kg/injection, schedule: Q04DX003 (ip), vehicle: saline
[6] = dose: 200.0 mg/kg/injection, schedule: Q04DX003 (ip), vehicle: saline
[7] = dose: 400.0 mg/kg/injection, schedule: Q04DX003 (ip), vehicle: saline
[8] = dose: 100.0 mg/kg/injection, schedule: Q01DX001 (ip), vehicle: Klucel (hydroxypropylcellulose) (HPC)
[9] = dose: 200.0 mg/kg/injection, schedule: Q01DX001 (ip), vehicle: Klucel (hydroxypropylcellulose) (HPC)
[10] = dose: 400.0 mg/kg/injection, schedule: Q01DX001 (ip), vehicle: Klucel (hydroxypropylcellulose) (HPC)

Measured: T/C

CCn1cnc(-c2ccccc2)c1-c1ccccc1
inactive: dose: 12.5 mg/kg/injection, schedule: Q01DX009 (ip), vehicle: saline with Tween-80 100 % of control | dose: 25.0 mg/kg/injection, schedule: Q01DX009 (ip), vehicle: saline with Tween-80 104 % of control | [1] 100 % of control

CCCN(CCC)CCSC(=S)NCCOC
inactive: [1] 100 % of control | [2] 113 % of control

COc1ccc(C(=O)CC(C(=O)O)c2ccc3c(c2)OCO3)cc1OC (centres undefined)
inactive: [2] 109 % of control | [3] 100 % of control | [4] 104 % of control

COc1cc2ccc(CN3CCCC3C(=O)OCc3ccccc3)cc2cc1OC (centres undefined)
inactive: [2] 100 % of control | [5] 109 % of control | [3] 104 % of control | [6] 118 % of control | [4] 116 % of control | [7] 100 % of control

c1ccc2cc(Nc3ccc(Nc4ccc5ccccc5c4)cc3)ccc2c1
inactive: [8] 100 % of control | [9] 91 % of control | [10] 95 % of control

O=[N+]([O-])c1ccc(NC2CCCCC2)c2c1no[n+]2[O-]
inactive: dose: 6.25 mg/kg/injection, schedule: Q01DX009 (ip), vehicle: saline 95 % of control | dose: 12.5 mg/kg/injection, schedule: Q01DX009 (ip), vehicle: saline 97 % of control | dose: 25.0 mg/kg/injection, schedule: Q01DX009 (ip), vehicle: saline 95 % of control

CCCCOc1cc(C(=O)NCCN(CC)CC)c2ccccc2n1
inactive: dose: 6.25 mg/kg/injection, schedule: Q04DX003 (ip), vehicle: saline with Tween-80 100 % of control | dose: 12.5 mg/kg/injection, schedule: Q04DX003 (ip), vehicle: saline with Tween-80 109 % of control | dose: 25.0 mg/kg/injection, schedule: Q04DX003 (ip), vehicle: saline with Tween-80 109 % of control

Cc1cccc(OS(=O)(=O)c2ccccc2[N+](=O)[O-])c1
inactive: dose: 100.0 mg/kg/injection, schedule: Q01DX001 (ip), vehicle: saline sonified 100 % of control | dose: 200.0 mg/kg/injection, schedule: Q01DX001 (ip), vehicle: saline sonified 110 % of control | dose: 400.0 mg/kg/injection, schedule: Q01DX001 (ip), vehicle: saline sonified 100 % of control

CC(=O)c1ccc(-c2ccccc2)cc1
inactive: [2] 100 % of control | [3] 91 % of control | [4] 95 % of control

C1CN(CC2COC(CN3CCOCC3)CO2)CCO1 (centres undefined)
inactive: [5] 114 % of control | [6] 104 % of control | [7] 104 % of control

CC(=O)Nc1ccn(CC(=O)c2ccco2)c(=O)n1
inactive: [2] 104 % of control | dose: 100.0 mg/kg/injection, schedule: Q04DX003 (ip), vehicle: saline with Tween-80 105 % of control | [3] 95 % of control | dose: 200.0 mg/kg/injection, schedule: Q04DX003 (ip), vehicle: saline with Tween-80 105 % of control | [4] 90 % of control | dose: 400.0 mg/kg/injection, schedule: Q04DX003 (ip), vehicle: saline with Tween-80 100 % of control

COc1ccc(C2CCc3cc(OC)c(OC)cc3C2NC=O)cc1OC (centres undefined)
inactive: dose: 120.0 mg/kg/injection, schedule: Q01DX009 (ip), vehicle: saline with Tween-80 87 % of control | dose: 240.0 mg/kg/injection, schedule: Q01DX009 (ip), vehicle: saline with Tween-80 95 % of control

Cc1ccc2ccccc2c1NCCC(=O)O
inactive: [8] 103 % of control | [9] 96 % of control | [10] 100 % of control

C=C[C@@](C)(O)CC/C=C(/C)CCC=C(C)C
inactive: [2] 109 % of control
